Read-outs that look alike come from different tables or passages of the source.

The target in experiment [1] is T1, EGFR(L858R/T790M) (Homo sapiens, UniProt P00533, L858R/T790M).
T1 construct: purchased from Carna (GST-a.a. 669-1210)
Nature of the experiment: EGFR biochemical assay (HTRF), IC50 determinations. Put shortly:
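HTRF kinase reaction with biotin-TK peptide at room temperature, quenched with EDTA at 60 min and detected with PT66K/SAXL after 1 h. Without preincubation, enzyme starts the reaction with compound, ATP and peptide present. With preincubation, compound, enzyme and peptide sit at room temperature for a set time before ATP is added.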
In general terms: In TR-FRET formats the signal depends on donor and acceptor labels being close together.

Experiment [2] has as its target human EGFR WT (NIH/3T3 cells, EGF-induced) (Homo sapiens, UniProt P00533). Nature of the experiment: EGFR target modulation in engineered NIH/3T3 cell lines (phospho-EGFR Y1068 AlphaLISA), EGFR WT. Type of experiment: cell-based. The note with it: engineered NIH/3T3 cells, read-out: NIH3T3 IC50 (μM) EGFR (WT). Put shortly: (§1)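 Engineered NIH/3T3 cells expressing EGFR variants treated 3 h at 37 °C with 12-point 1:3 compound series (top stock 10 μM); only WT cells stimulated with 50 ng/ml EGF for 5 min before lysis. Phospho-Y1068 measured by AlphaLISA with total-EGFR antibody; IC50 from non-linear fitting.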
(In general: Alpha assays give light when donor and acceptor beads are brought close together.)

Experiment [3] deals with human EGFR L858R (NIH/3T3 cells) (Homo sapiens, UniProt P00533, L858R). As to the kind of experiment: EGFR target modulation in engineered NIH/3T3 cell lines (phospho-EGFR Y1068 AlphaLISA), EGFR L858R. Type of experiment: cell-based. The note with it: engineered NIH/3T3 cells, read-out: NIH3T3 IC50 (μM) EGFR (L858R). The essentials:
as §1

In experiment [4] the target is human EGFR L858R/T790M (NIH/3T3 cells) (Homo sapiens, UniProt P00533, L858R/T790M). As to the kind of experiment: EGFR target modulation in engineered NIH/3T3 cell lines (phospho-EGFR Y1068 AlphaLISA), EGFR L858R/T790M. The experiment is classed as cell-based. The note with it: engineered NIH/3T3 cells, read-out: NIH3T3 IC50 (μM) EGFR (L858R/T790M). The essentials: as §1

Experiment [5] addresses H1975 (EGFR L858/T790M) (Homo sapiens, UniProt P00533, L858R/T790M). Nature of the experiment: EGFR target modulation in H1975 cell line (phospho-EGFR Y1173 ELISA). The experiment is classed as cell-based. Put shortly:
(§2)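 Phospho-EGFR Y1173 levels were measured by chemiluminescent capture ELISA in lysates of cells exposed to compound for 3 hours at 37 °C. Inhibition was normalised to EGF-stimulated control cells taken as maximal response, and IC50 values were obtained by non-linear curve fitting.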

Experiment [6] addresses H3255 (EGFR L858R) (Homo sapiens, UniProt P00533, L858R). Nature of the experiment: EGFR target modulation in H3255 cell line (phospho-EGFR Y1173 ELISA). Type of experiment: cell-based. The essentials: as §2
For orientation: In an ELISA, binding on a coated surface is turned into a signal by an enzyme label.

In experiment [7] the target is HEKn (EGFR WT) (Homo sapiens, UniProt P00533). As to the kind of experiment: EGFR target modulation in HEKn (EGFR-WT) cell line (phospho-EGFR Y1173 ELISA). Type of experiment: cell-based. The note with it: value outside parentheses. The essentials: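 Primary neonatal human keratinocytes (EGFR WT) were exposed to serially diluted compounds for 3 h, then lysed on ice. Phospho-EGFR Y1173 was measured by chemiluminescent sandwich ELISA using anti-EGFR capture.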

[8] abbreviates: EGFR (L858R/T790M) with 90 min pre-incubation, read-out: IC50 (μM) Column B.
Setting [9] is: EGFR (L858R/T790M) with no pre-incubation, read-out: IC50 (μM) Column A.

T1 sequence (P00533 669-1210 T790M/L858R): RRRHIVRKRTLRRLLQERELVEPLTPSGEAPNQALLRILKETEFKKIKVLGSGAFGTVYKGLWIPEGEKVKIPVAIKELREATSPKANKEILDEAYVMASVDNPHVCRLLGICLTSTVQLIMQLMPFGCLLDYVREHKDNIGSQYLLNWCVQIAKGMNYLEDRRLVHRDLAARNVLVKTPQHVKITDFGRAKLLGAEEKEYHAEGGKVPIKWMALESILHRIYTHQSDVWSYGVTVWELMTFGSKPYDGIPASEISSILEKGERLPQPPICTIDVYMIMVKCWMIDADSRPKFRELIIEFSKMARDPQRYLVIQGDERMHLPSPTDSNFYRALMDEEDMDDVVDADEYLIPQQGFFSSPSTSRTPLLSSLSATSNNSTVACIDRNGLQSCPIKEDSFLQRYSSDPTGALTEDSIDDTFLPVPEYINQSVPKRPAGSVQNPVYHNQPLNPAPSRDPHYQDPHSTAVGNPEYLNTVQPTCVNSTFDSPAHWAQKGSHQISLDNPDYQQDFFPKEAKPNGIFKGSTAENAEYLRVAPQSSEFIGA
HEKn (EGFR WT), sequence (P00533 25-1210): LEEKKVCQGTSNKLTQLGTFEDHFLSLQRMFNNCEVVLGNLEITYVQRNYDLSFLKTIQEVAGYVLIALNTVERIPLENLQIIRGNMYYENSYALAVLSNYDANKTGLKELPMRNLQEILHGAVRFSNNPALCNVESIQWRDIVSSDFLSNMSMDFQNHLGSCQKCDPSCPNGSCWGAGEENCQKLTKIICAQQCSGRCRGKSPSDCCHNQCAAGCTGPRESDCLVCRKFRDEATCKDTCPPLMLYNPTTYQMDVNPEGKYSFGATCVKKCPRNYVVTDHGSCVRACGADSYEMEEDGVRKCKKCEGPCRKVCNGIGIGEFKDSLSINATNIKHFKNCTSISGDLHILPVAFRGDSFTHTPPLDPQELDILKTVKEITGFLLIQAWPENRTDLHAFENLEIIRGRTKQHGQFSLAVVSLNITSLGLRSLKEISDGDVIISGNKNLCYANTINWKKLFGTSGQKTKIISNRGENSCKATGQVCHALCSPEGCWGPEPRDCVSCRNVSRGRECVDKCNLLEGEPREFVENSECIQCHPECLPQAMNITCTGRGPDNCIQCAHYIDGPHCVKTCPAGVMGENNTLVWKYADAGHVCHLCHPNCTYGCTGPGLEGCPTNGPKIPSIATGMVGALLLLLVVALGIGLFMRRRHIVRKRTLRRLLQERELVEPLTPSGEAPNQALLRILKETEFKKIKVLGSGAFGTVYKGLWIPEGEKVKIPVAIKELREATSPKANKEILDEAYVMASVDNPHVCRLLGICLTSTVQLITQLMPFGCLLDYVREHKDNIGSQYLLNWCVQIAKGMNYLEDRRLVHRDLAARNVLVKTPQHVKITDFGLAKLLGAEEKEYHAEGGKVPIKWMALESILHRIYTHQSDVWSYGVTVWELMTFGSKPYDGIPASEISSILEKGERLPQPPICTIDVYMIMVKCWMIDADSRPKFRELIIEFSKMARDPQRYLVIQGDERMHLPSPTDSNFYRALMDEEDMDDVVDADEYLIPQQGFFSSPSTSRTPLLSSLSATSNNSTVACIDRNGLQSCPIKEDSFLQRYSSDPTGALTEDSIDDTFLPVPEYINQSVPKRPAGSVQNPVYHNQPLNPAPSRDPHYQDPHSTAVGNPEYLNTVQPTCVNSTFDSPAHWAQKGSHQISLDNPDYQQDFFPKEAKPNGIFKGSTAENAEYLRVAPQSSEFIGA
human EGFR WT (NIH/3T3 cells, EGF-induced), sequence (P00533 25-1210): as above
H1975 (EGFR L858/T790M), sequence (P00533 25-1210 T790M/L858R): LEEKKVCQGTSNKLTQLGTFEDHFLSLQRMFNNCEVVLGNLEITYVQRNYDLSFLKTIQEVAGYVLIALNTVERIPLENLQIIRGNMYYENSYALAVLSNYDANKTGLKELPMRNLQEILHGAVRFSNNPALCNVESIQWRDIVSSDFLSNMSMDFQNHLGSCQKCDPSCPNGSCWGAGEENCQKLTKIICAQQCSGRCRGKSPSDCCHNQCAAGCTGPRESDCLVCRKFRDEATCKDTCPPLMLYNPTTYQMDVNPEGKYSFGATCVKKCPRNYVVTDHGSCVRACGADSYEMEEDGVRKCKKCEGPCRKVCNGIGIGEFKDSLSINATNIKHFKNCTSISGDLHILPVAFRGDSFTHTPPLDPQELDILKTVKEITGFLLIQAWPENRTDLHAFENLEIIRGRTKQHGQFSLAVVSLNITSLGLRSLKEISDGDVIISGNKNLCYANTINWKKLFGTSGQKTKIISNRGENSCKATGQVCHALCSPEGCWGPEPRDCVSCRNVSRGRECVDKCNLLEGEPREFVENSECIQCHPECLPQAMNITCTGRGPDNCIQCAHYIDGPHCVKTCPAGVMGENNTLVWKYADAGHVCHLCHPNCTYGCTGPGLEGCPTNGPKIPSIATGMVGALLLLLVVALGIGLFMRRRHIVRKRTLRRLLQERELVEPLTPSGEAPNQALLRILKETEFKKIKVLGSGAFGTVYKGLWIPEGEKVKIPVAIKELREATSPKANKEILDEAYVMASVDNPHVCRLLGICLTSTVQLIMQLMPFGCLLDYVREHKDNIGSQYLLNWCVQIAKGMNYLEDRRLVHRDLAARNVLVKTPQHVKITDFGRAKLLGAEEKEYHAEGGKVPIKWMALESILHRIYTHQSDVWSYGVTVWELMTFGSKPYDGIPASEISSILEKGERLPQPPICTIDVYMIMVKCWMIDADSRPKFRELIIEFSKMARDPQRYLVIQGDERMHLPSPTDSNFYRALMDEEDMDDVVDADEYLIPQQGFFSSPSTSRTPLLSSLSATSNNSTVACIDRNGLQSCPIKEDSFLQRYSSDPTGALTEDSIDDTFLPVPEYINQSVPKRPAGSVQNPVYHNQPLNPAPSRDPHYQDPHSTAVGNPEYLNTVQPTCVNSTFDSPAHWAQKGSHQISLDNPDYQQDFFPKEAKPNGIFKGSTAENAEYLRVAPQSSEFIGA

As for `Cc1cccc2nc(NC(=O)c3ccnc(F)c3)n(C3CCCCN(C(=O)/C=C/CN(C)C)C3)c12` (stereo not drawn) [Example 17-58], the IC50 in experiment [1] (setting [8]) is less than 0.001 µM; in experiment [1] (setting [9]), 0.005 µM; in experiment [2] it was 0.026 µM; in experiment [3], 0.002 µM; in experiment [4] it was 0.002 µM; in experiment [5], 3 nM. Further, the figures for the IC50 in experiment [6] and in experiment [7] were 9 nM and 154 nM, respectively.

`Cc1cc(C(=O)Nc2nc3cccc(C)c3n2[C@@H]2CCCN(C(=O)/C=C/CN(C)C)C2)ccn1` [Example 17-4]: the IC50 came to 0.006 µM in experiment [1] (setting [8]); 0.135 µM in experiment [1] (setting [9]); 1.4 µM in experiment [2]; 0.062 µM in experiment [3]; 0.058 µM in experiment [4]; 105 nM in experiment [5]. Moreover, the figures for the IC50 in experiment [6] and in experiment [7] were 156 nM and more than 10000 nM, respectively.

Turning to `COc1cccc2nc(NC(=O)c3ccnnc3)n([C@@H]3CCCCN(C(=O)/C=C/CN(C)C)C3)c12` [Example 17-83], the IC50 in experiment [1] (setting [8]) worked out at 0.001 µM; in experiment [1] (setting [9]) it was 0.02 µM; in experiment [2] it was 0.6 µM; in experiment [3] it was 0.022 µM; in experiment [4], 0.027 µM; in experiment [5], 29 nM. For the same molecule, the IC50 in experiment [6] was found to be 72 nM; in experiment [7], 2330 nM.

For `Cc1cc(C(=O)Nc2nc3cccc(C)c3n2[C@@H]2CCCCN(C(=O)/C=C/CN(C)C)C2)ccn1` [Example 7, (R,E)-N-(1-(1-(4-(dimethylamino)but-2-enoyl)azepan-3-yl)-7-methyl-1H-benzo[d]imidazol-2-yl)-2-methylisonicotinamide], the IC50 was less than 0.001 µM in experiment [1] (setting [8]); 0.002 µM in experiment [1] (setting [9]); 0.019 µM in experiment [2]; 0.001 µM in experiment [3]; 0.001 µM in experiment [4]; 1 nM in experiment [5]. Moreover, the IC50 in experiment [6] worked out at 2 nM; in experiment [7] it was 74 nM.

As to `Cc1ncc(C(=O)Nc2nc3cccc(C)c3n2C2CCCCN(C(=O)/C=C/CN(C)C)C2)s1` (single isomer, unassigned) [Example 21-8B], the IC50 in experiment [1] (setting [8]) is less than 0.001 µM; in experiment [1] (setting [9]), 0.006 µM; in experiment [2], 0.016 µM; in experiment [3] it was 0.001 µM; in experiment [4], 0.002 µM; in experiment [5] it was 4 nM. The IC50 in experiment [6] was 2 nM; in experiment [7], 95 nM.

As to `Cc1cccc2nc(NC(=O)c3ccnnc3)n([C@@H]3CCCCN(C(=O)/C=C/CN(C)C)C3)c12` [Example 17-95], the IC50 was less than 0.001 µM in experiment [1] (setting [8]); 0.002 µM in experiment [1] (setting [9]); 0.026 µM in experiment [2]; 0.002 µM in experiment [3]; 0.002 µM in experiment [4]; 3 nM in experiment [5]. Moreover, the IC50 in experiment [6] was 3 nM; in experiment [7], 127 nM.

Turning to `Cc1cccc2nc(NC(=O)c3ccc(C(F)(F)F)nc3)n(C3CCCCN(C(=O)/C=C/CN(C)C)C3)c12` (stereo not drawn) [Example 17-46], the IC50 in experiment [1] (setting [8]) worked out at 0.005 µM; in experiment [1] (setting [9]), 0.092 µM; in experiment [2] it was 0.057 µM; in experiment [3], 0.002 µM; in experiment [4], 0.031 µM; in experiment [5], 132 nM. The values for the IC50 in experiment [6] and in experiment [7] were 5 nM and 212 nM, respectively.

Consider `Cc1cccc2nc(NC(=O)c3ccc(F)cc3F)n(C3CCCCN(C(=O)/C=C/CN(C)C)C3)c12` (stereo not drawn) [Example 17-28], for which the IC50 was less than 0.001 µM in experiment [1] (setting [8]); 0.014 µM in experiment [1] (setting [9]); 0.283 µM in experiment [2]; 0.004 µM in experiment [3]; 0.01 µM in experiment [4]; 24 nM in experiment [5]. Also, the figures for the IC50 in experiment [6] and in experiment [7] were 81 nM and 370 nM, respectively.

Take `Cc1cccc2nc(NC(=O)c3cccc(C(F)(F)F)c3)n(C3CCCCN(C(=O)/C=C/CN(C)C)C3)c12` (stereo not drawn) [Example 17-25]: the IC50 in experiment [1] (setting [8]) was less than 0.001 µM; in experiment [1] (setting [9]), less than 0.002 µM; in experiment [2], 0.057 µM; in experiment [3], 0.002 µM; in experiment [4], less than 0.001 µM; in experiment [5], 2 nM. For the same molecule, the IC50 was 26 nM in experiment [6] and 251 nM in experiment [7].
